Patent publication US10383861B2, “3-(1H-pyrrolo[2,3-C]pyridin-2-yl)-1H-pyrazolo[3,4-C]pyridines and therapeutic uses thereof” (Samumed, LLC, priority 2015, dated 2019)

How the values were obtained:
Assay type in all cases: cell-based
SW480 colon cancer cells = assay: Cell viability assay (CellTiter-Blue) in SW480 colon cancer cells; conditions: Homo sapiens; for EC50: 96 h, SW480 cell viability, four days, CellTiter-Blue; for inhibition at 10 µM: SW480, read-out: percent inhibition at 10 μM
Description: Representative compounds were screened using the following assay procedure to assess the effect on cell viability as described below.
Approximately 2×10^3 SW480 colon cancer cells were seeded into each well and allowed to incubate in the presence or absence of compound for four days at 37° C./5% CO2. Eight replicates of DMSO-treated cells served as controls and cells treated with compound were performed in duplicate.
After incubation, 20 μL of CellTiter-Blue (Promega) was added to each well allowed to incubate for approximately 3 hours. This reagent was a buffered solution which contains resazurin, metabolically active cells were able to reduce rezarurin (blue) into resorufin (pink) which was highly fluorescent. This measured fluorescence was used as a readout for cell viability.

[1] = system: primary human mesenchymal stem cells (hMSCs); assay: Induction of chondrogenesis in hMSCs (nodule count, Rhodamine B/Nile Red); conditions: 6 days; for Emax: relative to TGF-β3 (10 ng/mL) positive control, read-out: Max. Activity as % TGF-β3 activity; for EC50: concentration required to induce 50% levels of chondrogenesis vs TGF-β3, read-out: Conc (nM) of 50% TGF-β3 activity
Text: Representative compounds were screened using primary human mesenchymal stem cells (hMSCs) to determine their ability to induce chondrogenesis (process by which cartilage is developed).
Primary human mesenchymal stem cells (hMSCs) were purchased from Lonza (Walkersville, Md.) and expanded in Mesenchymal Stem Cell Growth Media (Lonza). Cells between passage 3 and 6 were used for the experiments.
To image chondrogenic nodules, the cells were fixed using 4% formaldehyde (Electron Microscopy Sciences), and stained with 2 μg/mL Rhodamine B (Sigma-Aldrich) and 20 μM Nile Red (Sigma-Aldrich) [Johnson K., et.al, A Stem Cell-Based Approach to Cartilage Repair, Science, (2012). […] Number of nodules in each well was normalized to the average of 3 DMSO treated wells on the same plate using Excel (Microsoft Inc.). The normalized averages (fold change over DMSO) of 3 replicate wells for each compound concentration were calculated. Due to solubility limitations of some of the compounds, curve fitting was incomplete leading to inaccurate EC50 determinations.
Using TGF-β3 as a positive control, the concentration of representative compounds required to induce 50% levels of chondrogenesis is reported. In addition, the maximum activity of each compound and the respective dose that each compound reached maximum chondrogenesis activity is reported.

IL-6 = IL-6 inhibition in LPS-stimulated THP-1 cells (HTRF); conditions: Homo sapiens; for inhibition at 10 µM: THP-1, read-out: percent inhibition at 10 μM; for EC50: THP-1 cells, LPS 500 ng/mL, 22 hours, IL6 HTRF
Description: THP-1 cells were cultured in basal media with 1% FBS for 24 hours before the start of the assay. […] THP-1 cells were plated at 5000 cells/well in the 384-well plates and incubated at 37° C. for 2 h. 500 ng/mL of LPS was added after 2 hours and cells were incubated for another 22 hours at 37° C. Plates were spun in a centrifuge for 1 minute at […] and a mixture of anti-IL6 XL665, and anti-IL6 Cryptate diluted in reconstitution buffer (Cisbio Inc.) was added to each well. Following incubation for 3 hrs at room temperature, Homogeneous Time-Resolved Fluorescence (HTRF) was measured using the Envision (Perkin Elmer) at 665 nm and […]. The ratio of fluorescence at 665 nm to 620 nm was used as a readout for IL6 quantification. All samples were processed in duplicate. Readings were normalized to DMSO treated cells and normalized activities were utilized for EC50 calculations using the dose-response log (inhibitor) vs. response -variable slope (four parameters) nonlinear regression feature available in GraphPad Prism 5.0 (or Dotmatics).

Wnt activity = Wnt activity screening assay, Sp5-Luc reporter gene in SW480 cells; conditions: Homo sapiens; for inhibition at 10 µM: SW480, read-out: percent inhibition at 10 μM; for EC50: Sp5-Luc reporter, SW480 cells, overnight incubation
Text: The screening assay for Wnt activity is described as follows. Reporter cell lines can be generated by stably transducing cancer cell lines (e.g., colon cancer) or primary cells (e.g., IEC-6 intestinal cells) with a lentiviral construct that includes a Wnt-responsive promoter driving expression of the firefly luciferase gene.
SW480 colon carcinoma cells were transduced with a lentiviral vector expressing luciferase with a human Sp5 promoter consisting of a sequence of eight TCF/LEF binding sites. SW480 cells stably expressing the Sp5-Luc reporter gene and a hygromycin resistance gene were selected by treatment with 150 μg/mL of hygromycin for 7 days. These stably transduced SW480 cells were expanded in cell culture and used for all further screening activities. […] For Sp5-Luc reporter gene assays, the cells were plated at 4,000 cells/well in 384-well plates with medium containing 1% fetal bovine serum and incubated overnight at 37° C. and 5% CO2. Following incubation, 20 μl of BrightGlo luminescence reagent (Promega) was added to each well of the 384-well assay plates. The plates were placed on an orbital shaker for 2 min and then luminescence was quantified using the Envision (Perkin Elmer) plate reader. Readings were normalized to DMSO only treated cells, and normalized activities were utilized for EC50 calculations using the dose-response log (inhibitor) vs. response -variable slope (four parameters) nonlinear regression feature available in GraphPad Prism 5.0 (or Dotmatics).

[2] = system: primary human fibroblasts derived from IPF patients (LL29 cells); assay: Inhibition of the fibrotic process: αSMA staining in TGF-β1 treated LL29 fibroblasts; conditions: Fibroblast; for EC50: 96 h, LL29 cells, TGF-β1 20 ng/mL, 4 days, % αSMA positive cells; for inhibition at 10 µM: read-out: percent inhibition at 10 μM
Description: Representative compounds were screened using primary human fibroblasts (derived from IPF patients) treated with TGF-β1 to determine their ability to inhibit the fibrotic process.
LL29 cells are plated at 1,500 cells/well in 80 μL/well F12 medium supplemented with 1% Fetal Bovine Serum. […] Wells treated with TGF-β1 and containing DMSO were used as controls. […] Following incubation for 4 days, SYTOX green nucleic acid stain (Life Technologies [Thermo Fisher Scientific]) was added to the wells at a final concentration of 1 μM and incubated at room temperature for 30 min.

Row | EC50 (SW480 colon cancer cells) [µM] | EC50 (IL-6) [µM] | EC50 (Wnt activity) [µM] | EC50 [1] [nM] | Structure (SMILES) | inhibition at 10 µM (SW480 colon cancer cells) [%] | Emax [1] [%] | inhibition at 10 µM (IL-6) [%] | inhibition at 10 µM (Wnt activity) [%] | EC50 [2] [µM] | inhibition at 10 µM [2] [%]
1 | > 10 | > 10 | 4.28 |  | CC(C)Nc1cncc(-c2cc3c(-c4cc5c(-c6cc(F)cc(CNS(C)(=O)=O)c6)cncc5[nH]4)n[nH]c3cn2)c1 [Compound 488, N-(3-Fluoro-5-(2-(5-(5-(isopropylamino)pyridin-3-yl)-1H-pyrazolo[3,4-c]pyridin-3-yl)-1H-pyrrolo[2,3-c]pyridin-4-yl)benzyl)methanesulfonamide] | 11 | 17 | 46.8 |  | 2.59 | 
2 | > 10 | > 10 | 1.03 |  | Cn1cc(-c2cc3c(-c4cc5c(-c6cc(F)cc(CNS(C)(=O)=O)c6)cncc5[nH]4)n[nH]c3cn2)cn1 [Compound 764, N-(3-Fluoro-5-(2-(5-(1-methyl-1H-pyrazol-4-yl)-1H-pyrazolo[3,4-c]pyridin-3-yl)-1H-pyrrolo[2,3-c]pyridin-4-yl)benzyl)methanesulfonamide] | 9.3 |  | 20 |  | 2.42 | 
3 | > 10 | 3.15 | 0.94 |  | CC(C)Nc1cncc(-c2cc3c(-c4cc5c(-c6cccnc6)cncc5[nH]4)n[nH]c3cn2)c1 [Compound 96, N-Isopropyl-5-(3-(4-(pyridin-3-yl)-1H-pyrrolo[2,3-c]pyridin-2-yl)-1H-pyrazolo[3,4-c]pyridin-5-yl)pyridin-3-amine] | 25.2 |  |  |  | 0.624 | 
4 | > 10 | > 10 | > 10 |  | CC(C)CC(=O)Nc1cncc(-c2cc3c(-c4cc5c(-c6ccncc6)cncc5[nH]4)n[nH]c3cn2)c1 [Compound 114, 3-Methyl-N-(5-(3-(4-(pyridin-4-yl)-1H-pyrrolo[2,3-c]pyridin-2-yl)-1H-pyrazolo[3,4-c]pyridin-5-yl)pyridin-3-yl)butanamide] | 14.2 |  | 11.6 | 15.1 | > 10 | 23

The remaining lines, values behind:

Row | Structure (SMILES) | EC50 (SW480 colon cancer cells) [µM] | EC50 (IL-6) [µM] | EC50 (Wnt activity) [µM] | EC50 [1] [nM] | inhibition at 10 µM (SW480 colon cancer cells) [%] | Emax [1] [%] | inhibition at 10 µM (IL-6) [%] | inhibition at 10 µM (Wnt activity) [%] | EC50 [2] [µM] | inhibition at 10 µM [2] [%]
5 | CC(C)(C)C(=O)Nc1cncc(-c2cc3c(-c4cc5c(-c6ccncc6)cncc5[nH]4)n[nH]c3cn2)c1 [Compound 120, N-(5-(3-(4-(Pyridin-4-yl)-1H-pyrrolo[2,3-c]pyridin-2-yl)-1H-pyrazolo[3,4-c]pyridin-5-yl)pyridin-3-yl)pivalamide] | > 10 | > 10 | > 10 |  | 29 | 30 | 16.4 | 22 | 5.35 | 
6 | CN(C)Cc1cncc(-c2cc3c(-c4cc5c(-c6ccccc6F)cncc5[nH]4)n[nH]c3cn2)c1 [Compound 69, 1-(5-(3-(4-(2-Fluorophenyl)-1H-pyrrolo[2,3-c]pyridin-2-yl)-1H-pyrazolo[3,4-c]pyridin-5-yl)pyridin-3-yl)-N,N-dimethylmethanamine] | 6.31 | > 10 | > 10 | 2700 |  | 54 | 24.7 | 49.2 | 9.72 | 
7 | Fc1ccc(-c2cncc3[nH]c(-c4n[nH]c5cnc(-c6cncc(CN7CCC(F)(F)C7)c6)cc45)cc23)cc1 [Compound 54, 5-(5-((3,3-Difluoropyrrolidin-1-yl)methyl)pyridin-3-yl)-3-(4-(4-fluorophenyl)-1H-pyrrolo[2,3-c]pyridin-2-yl)-1H-pyrazolo[3,4-c]pyridine] | > 10 | > 10 | 3.26 | 100 | 38.6 | 78 | 11.2 |  | 9.98 | 
8 | Nc1cncc(-c2cc3c(-c4cc5c(-c6ccncc6)cncc5[nH]4)n[nH]c3cn2)c1 [Compound 115, 5-(3-(4-(Pyridin-4-yl)-1H-pyrrolo[2,3-c]pyridin-2-yl)-1H-pyrazolo[3,4-c]pyridin-5-yl)pyridin-3-amine] | > 10 | > 10 | > 10 | 10 | 22 | 52 | 4.3 | 14.2 | 3.74 | 
9 | CCNCc1cncc(-c2cc3c(-c4cc5c(-c6ccccc6F)cncc5[nH]4)n[nH]c3cn2)c1 [Compound 62, N-((5-(3-(4-(2-Fluorophenyl)-1H-pyrrolo[2,3-c]pyridin-2-yl)-1H-pyrazolo[3,4-c]pyridin-5-yl)pyridin-3-yl)methyl)ethanamine] | > 10 | 3.66 | 9.13 |  | 44.4 | 21 |  |  | 2.64 | 
10 | CCCCC(=O)Nc1cncc(-c2cc3c(-c4cc5c(-c6ccncc6)cncc5[nH]4)n[nH]c3cn2)c1 [Compound 131, N-(5-(3-(4-(Pyridin-4-yl)-1H-pyrrolo[2,3-c]pyridin-2-yl)-1H-pyrazolo[3,4-c]pyridin-5-yl)pyridin-3-yl)pentanamide] | > 10 | > 10 | > 10 |  | 17.8 |  | 20.6 | 13.1 | > 10 | 8.3
11 | O=C(Nc1cncc(-c2cc3c(-c4cc5c(-c6ccccc6F)cncc5[nH]4)n[nH]c3cn2)c1)C1CCCCC1 [Compound 79, N-(5-(3-(4-(2-Fluorophenyl)-1H-pyrrolo[2,3-c]pyridin-2-yl)-1H-pyrazolo[3,4-c]pyridin-5-yl)pyridin-3-yl)cyclohexanecarboxamide] | 1.73 | 9.56 | 3.25 |  |  |  |  |  | 1.08 | 
12 | Fc1ccccc1-c1cncc2[nH]c(-c3n[nH]c4cnc(-c5cn[nH]c5)cc34)cc12 [Compound 539, 3-(4-(2-Fluorophenyl)-1H-pyrrolo[2,3-c]pyridin-2-yl)-5-(1H-pyrazol-4-yl)-1H-pyrazolo[3,4-c]pyridine] | > 10 | > 10 | > 10 |  | 3.6 |  | 0 | 8.6 | 2.43 | 
13 | CN(C)Cc1cncc(-c2cc3c(-c4cc5ccncc5[nH]4)n[nH]c3cn2)c1 [Compound 265, 1-(5-(3-(1H-Pyrrolo[2,3-c]pyridin-2-yl)-1H-pyrazolo[3,4-c]pyridin-5-yl)pyridin-3-yl)-N,N-dimethylmethanamine] | 2.65 | 3.11 | 2.54 |  |  |  |  |  | 1.48 | 
